# Source: patent US20240009191A1, “METHOD AND COMPOSITION FOR THE TREATMENT OF DISEASE” (DIMERIX BIOSCIENCE PTY LTD, priority 2019, published 2024)
# “Also recorded” adds a separate entry of the source.
# Key:
# Type in all cases: cell-based
# AT1R-CXCR2 heteromer [1] = target: T1, AT1R-CXCR2 heteromer (Homo sapiens, UniProt P25025+P30556); assay: BRET trafficking of CXCR2/Rluc8 to Venus/Kras or Venus/Rab markers, presence of HA-AT1R
# T1 sequence (P25025 1-360): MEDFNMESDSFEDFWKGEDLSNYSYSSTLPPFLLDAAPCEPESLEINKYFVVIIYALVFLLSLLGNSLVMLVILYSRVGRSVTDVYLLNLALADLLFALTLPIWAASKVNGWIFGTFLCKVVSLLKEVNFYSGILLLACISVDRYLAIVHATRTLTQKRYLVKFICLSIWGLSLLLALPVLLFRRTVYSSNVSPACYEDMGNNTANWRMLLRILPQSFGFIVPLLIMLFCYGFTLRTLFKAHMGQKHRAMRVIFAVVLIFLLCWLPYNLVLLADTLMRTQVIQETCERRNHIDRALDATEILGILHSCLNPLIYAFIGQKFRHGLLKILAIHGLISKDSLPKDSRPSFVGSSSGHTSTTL
# T1 sequence (P30556 1-359): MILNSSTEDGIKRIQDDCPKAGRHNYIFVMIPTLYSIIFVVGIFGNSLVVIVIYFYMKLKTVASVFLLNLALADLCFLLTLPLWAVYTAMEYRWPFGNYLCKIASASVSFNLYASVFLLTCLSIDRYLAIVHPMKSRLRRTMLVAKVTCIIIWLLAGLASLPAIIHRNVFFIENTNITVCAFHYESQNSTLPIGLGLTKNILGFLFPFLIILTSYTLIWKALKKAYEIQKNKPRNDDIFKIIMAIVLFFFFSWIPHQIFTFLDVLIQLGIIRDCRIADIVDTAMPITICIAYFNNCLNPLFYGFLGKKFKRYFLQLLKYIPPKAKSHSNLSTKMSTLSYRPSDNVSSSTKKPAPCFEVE
# Protocol: (§1) HEK293FT cells were seeded in 6-well plates at a density of approximately 700,000 cells/well and maintained at 37° C., 5% CO2 in Complete Media (DMEM containing 0.3 mg/ml glutamine, 100 IU/ml penicillin and 100 μg/ml streptomycin (Gibco/Thermo Fisher)) supplemented with 10% fetal calf serum (FCS; Bovogen). Transient transfections were carried out 24 h after seeding using FuGene6™ (Promega) according to manufacturer instructions. 24 h post-transfection, cells were washed with PBS, detached using 0.05% trypsin/0.53 mM EDTA, resuspended in HEPES-buffered phenol red free Complete Media containing 5% FCS and added to a poly-L-lysine-coated white 96-well microplate (Greiner Bio-One). 48 h post-transfection, bioluminescence resonance energy transfer (BRET) assays were carried out following pre-incubation of cells with EnduRen™ (Promega) at a final concentration of 30 μM, at 37° C., 5% CO2 for 2 h. BRET measurements were taken at 37° C. using the LUMlstar™ or CLARIOstar™ (BMG Labtech). Filtered light emissions were measured for 1 s in each of the ‘donor wavelength window’ (460-490 nm for LUMlstar™ or 410-490 nm for CLARIOstar™) and ‘acceptor wavelength window’ (520-550 nm for LUMlstar™ or 520-620 nm for CLARIOstar™).
# (§2) The BRET signal observed between interacting proteins is normalized by subtracting the background BRET ratio. This can be done in one of two ways (see Pfleger et al. (2006) Cell Signal 18:1664-1670; Pfleger et al. (2006) Nat Protoc 1:336-344): 1) the ratio of the 520-550 nm or 520-620 nm emission over the 460-490 nm or 410-490 nm emission for a cell sample containing only the donor construct is subtracted from the same ratio for a sample containing the interacting acceptor and donor fusion proteins; 2) the ratio of the 520-550 nm or 520-620 nm emission over the 460-490 nm or 410-490 nm emission for a cell sample treated with vehicle is subtracted from the same ratio for a second aliquot of the same cell sample treated with ligand. In the following examples, the second calculation will be used and the signal is described as ligand-induced BRET′. Furthermore, for data shown in FIGS. 4 to 20, all data points in a given set are corrected relative to the final data point prior to agonist treatment, which is fixed to zero. In keys on FIGS. 7 to 20, “>” means “followed by after 50 minutes”, with agonists added at time zero on the x-axes.
# (§3) The Receptor-Heteromer Investigation Technology (Receptor-HIT) is an assay configuration that provides insights into receptor complexes (Ayoub et al. (2015) PLoS One 10(3):e0119803). It is also known as GPCR-HIT when assessing GPCRs. It is an assay configuration whereby one receptor (eg. CXCR2) is labelled with one component (eg. Renilla luciferase variant Rluc8) of a proximity-based reporter system (eg. BRET), the complementary component of which (eg. Venus yellow fluorescent protein) is fused to a receptor interacting partner (eg. mGsi).
# (§4) Referring now to FIG. 3 (published in Tiulpakov et al (2016) Mol. Endocrinol. 30, 889-904), the proximity of Rluc8-tagged receptors to Venus-tagged Kras plasma membrane marker, or Venus-tagged Rabs specific for distinct subcellular locations, is monitored in live cells and in real-time using BRET. The Rab markers are: Venus/Rab5 (5) for early endosomes; Venus/Rab4 (4) for early endosome recycling; Venus/Rab11a (11) for recycling endosomes; Venus/Rab7 (7) for late endosomes/lysosomes; Venus/Rab9 (9) for late endosome trafficking to the trans-Golgi network; Venus/Rab1 (1) for endoplasmic reticulum trafficking to the cis-Golgi; Venus/Rab6 (6) for Golgi apparatus and trans-Golgi network; or Venus/Rab8 (8) for trans-Golgi network to plasma membrane.
# AT1R = target: T2, AT1R (Homo sapiens, UniProt P30556); assay: BRET trafficking of AT1R/Rluc8 to Venus/Kras or Venus/Rab markers, absence of CXCR2; conditions: 100 nM CXCL8, 1 μM AngII
# T2 construct: expressed in transfected cells; host or cells: HEK293FT
# T2 sequence (P30556 1-359): T1 sequence (P30556 1-359)
# Protocol: as §1, §2, §4
# AT1R-CXCR2 heteromer [2] = target: T3, AT1R-CXCR2 heteromer (Homo sapiens, UniProt P25025+P30556); assay: BRET trafficking of AT1R/Rluc8 to Venus/Kras or Venus/Rab markers, presence of unlabelled CXCR2
# T3 sequence (P30556 1-359): T1 sequence (P30556 1-359)
# T3 sequence (P25025 1-360): T1 sequence (P25025 1-360)
# Protocol: as §1, §2, §3, §4
substance,measurement,setting,value
Angiotensin II [AngII],proximity of CXCR2/Rluc8 to Venus/Kras (BRET),AT1R-CXCR2 heteromer [1],increased proximity
same,proximity of CXCR2/Rluc8 to Venus/Rab1 (BRET),AT1R-CXCR2 heteromer [1],barely any effect
same,proximity of CXCR2/Rluc8 to Venus/Rab4 (BRET),AT1R-CXCR2 heteromer [1],very small increase
same,proximity of CXCR2/Rluc8 to Venus/Rab5 (BRET),AT1R-CXCR2 heteromer [1],very small increase
same,proximity of CXCR2/Rluc8 to Venus/Rab6 (BRET),AT1R-CXCR2 heteromer [1],small increase
same,proximity of CXCR2/Rluc8 to Venus/Rab7 (BRET),AT1R-CXCR2 heteromer [1],barely any effect
same,proximity of CXCR2/Rluc8 to Venus/Rab8 (BRET),AT1R-CXCR2 heteromer [1],clear increase
same,proximity of CXCR2/Rluc8 to Venus/Rab9 (BRET),AT1R-CXCR2 heteromer [1],small increase
same,proximity of CXCR2/Rluc8 to Venus/Rab11a (BRET),AT1R-CXCR2 heteromer [1],barely any effect
same,proximity of AT1R/Rluc8 to Venus/Rab6 (BRET),"AT1R; Golgi apparatus to trans-Golgi network, FIG. 5I",little effect
same,proximity of AT1R/Rluc8 to Venus/Rab4 (BRET),"AT1R; early endosome recycling, FIG. 5E",increase
same,proximity of AT1R/Rluc8 to Venus/Rab5 (BRET),"AT1R; early endosomes, FIG. 5G",substantial increase
same,proximity of AT1R/Rluc8 to Venus/Rab1 (BRET),"AT1R; endoplasmic reticulum to cis-Golgi, FIG. 5C",increase
same,proximity of AT1R/Rluc8 to Venus/Rab9 (BRET),"AT1R; late endosome to trans-Golgi network, FIG. 5O",increase
same,proximity of AT1R/Rluc8 to Venus/Rab7 (BRET),"AT1R; late endosomes/lysosomes, FIG. 5K",increase
same,proximity of AT1R/Rluc8 to Venus/Kras (BRET),"AT1R; plasma membrane marker, FIG. 5A",marked reduction
same,proximity of AT1R/Rluc8 to Venus/Rab11a (BRET),"AT1R; recycling endosomes, FIG. 5Q",substantial increase
same,proximity of AT1R/Rluc8 to Venus/Rab8 (BRET),"AT1R; trans-Golgi network to plasma membrane, FIG. 5M",small increase at later time-points
same,proximity of AT1R/Rluc8 to Venus/Kras (BRET),AT1R-CXCR2 heteromer [2],marked reduction; also recorded: does not result in a notable increase
same,proximity of AT1R/Rluc8 to Venus/Rab1 (BRET),AT1R-CXCR2 heteromer [2],increase
same,proximity of AT1R/Rluc8 to Venus/Rab4 (BRET),AT1R-CXCR2 heteromer [2],increase
same,proximity of AT1R/Rluc8 to Venus/Rab5 (BRET),AT1R-CXCR2 heteromer [2],substantial increase
same,proximity of AT1R/Rluc8 to Venus/Rab7 (BRET),AT1R-CXCR2 heteromer [2],increase
same,proximity of AT1R/Rluc8 to Venus/Rab8 (BRET),AT1R-CXCR2 heteromer [2],less of an effect
same,proximity of AT1R/Rluc8 to Venus/Rab9 (BRET),AT1R-CXCR2 heteromer [2],increase
same,proximity of AT1R/Rluc8 to Venus/Rab11a (BRET),AT1R-CXCR2 heteromer [2],substantial increase
